Data as given in patent publication US6355799B1, “Substituted benzene compounds, process for their preparation, and herbicidal and defoliant compositions containing them” (ISK Americas Incorporated, priority 1997, dated 2002).

How the values were obtained:
Type in all cases: in vivo
[1] = tested on: redroot pigweed (Amaranthus retroflexus, AMARE); experiment: Pre-emerge test, greenhouse herbicide activity screening; settings: rating scale 0-100, 14 days after application
Procedure, shortened: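 Compounds in acetone were track-sprayed at 15-1000 g ai/ha (187 l/ha) on sandy loam pots: pre-emerge one day after seeding, post-emerge at 2-3 leaf stage with 0.25% v/v non-ionic surfactant. Phytotoxicity was rated 14 days later on a 0 (no damage) to 100 (complete death) scale.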

[2] = tested on: barnyardgrass (Echinochloa crus-galli, ECHCG); experiment: as above; settings: rating scale 0-100, 14 days after application
Procedure, shortened: (§1)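 Rating: 0–100 visual injury, 14 DAA. Application: acetone, 187 l/ha, 15–1000 g ai/ha, flat-fan track sprayer with nozzle 40–45 cm above soil or canopy. Post-emerge runs used 0.25% v/v surfactant on 2–3 leaf plants.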

[3] = tested on: green foxtail (Setaria viridis, SETVI); experiment: as above; settings: rating scale 0-100, 14 days after application
Procedure, shortened: as §1

[4] = tested on: ivyleaf morningglory (Ipomoea hederacea, IPOHE); experiment: as above; settings: rating scale 0-100, 14 days after application
Procedure, shortened: as §1

[5] = tested on: johnsongrass (Sorghum halepense, SORHA); experiment: as above; settings: rating scale 0-100, 14 days after application
Procedure, shortened: as §1

[6] = tested on: lambsquarters (Chenopodium album, CHEAL); experiment: as above; settings: rating scale 0-100, 14 days after application
Procedure, shortened: as §1

[7] = tested on: large crabgrass (Digitaria sanguinalis, DIGSA); experiment: as above; settings: rating scale 0-100, 14 days after application
Procedure, shortened: as §1

[8] = tested on: sicklepod (Cassia obtusifolia, CASOB); experiment: as above; settings: rating scale 0-100, 14 days after application
Procedure, shortened: as §1

[9] = tested on: velvetleaf (Abutilon theophrasti, ABUTH); experiment: as above; settings: rating scale 0-100, 14 days after application
Procedure, shortened: as §1

[10] = tested on: field corn (Zea mays L., var. Dekalb 535, CORN); experiment: Pre-emerge test, crop safety; settings: rating scale 0-100, 14 days after application
Procedure, shortened: (§2)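 Fourteen days after spraying, crop and weed injury was graded visually from 0, no effect, to 100, every plant dead. Test substances were dissolved in acetone and applied at 15–1000 g ai/ha with a flat-fan nozzle. Application was either pre-emergence, one day after sowing, or post-emergence at the 2–3 leaf stage.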

[11] = tested on: upland rice (Oryza sp., var. Tebonnet, RICE); experiment: Pre-emerge test, crop safety; settings: rating scale 0-100, 14 days after application
Procedure, shortened: as §2

[12] = tested on: barnyardgrass (Echinochloa crus-galli, ECHCG); experiment: Post-emerge test, greenhouse herbicide activity screening; settings: rating scale 0-100 (0 no damage, 100 complete death), 14 days after application
Procedure, shortened: (§3)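 Compounds in acetone were track-sprayed at 15–1000 g ai/ha: pre-emergence onto soil sown the previous day, then top-watered to incorporate and later bottom-watered; post-emergence onto 2–3 leaf plants with 0.25% v/v surfactant, bottom-watered only. Ratings on a 0–100 phytotoxicity scale were taken at day 14.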

[13] = tested on: common ragweed (Ambrosia artemisizfolia L., AMBEL); experiment: as above; settings: rating scale 0-100 (0 no damage, 100 complete death), 14 days after application
Procedure, shortened: as §3

[14] = tested on: green foxtail (Setaria viridis, SETVI); experiment: as above; settings: rating scale 0-100 (0 no damage, 100 complete death), 14 days after application
Procedure, shortened: as §3

[15] = tested on: ivyleaf morningglory (Ipomoea hederacea, IPOHE); experiment: as above; settings: rating scale 0-100 (0 no damage, 100 complete death), 14 days after application
Procedure, shortened: as §3

[16] = tested on: johnsongrass (Sorghum halepense, SORHA); experiment: as above; settings: rating scale 0-100 (0 no damage, 100 complete death), 14 days after application
Procedure, shortened: as §3

[17] = tested on: lambsquarters (Chenopodium album, CHEAL); experiment: as above; settings: rating scale 0-100 (0 no damage, 100 complete death), 14 days after application
Procedure, shortened: as §3

[18] = tested on: large crabgrass (Digitaria sanguinalis, DIGSA); experiment: as above; settings: rating scale 0-100 (0 no damage, 100 complete death), 14 days after application
Procedure, shortened: as §3

[19] = tested on: redroot pigweed (Amaranthus retroflexus, AMARE); experiment: as above; settings: rating scale 0-100 (0 no damage, 100 complete death), 14 days after application
Procedure, shortened: as §3

[20] = tested on: sicklepod (Cassia obtusifolia, CASOB); experiment: as above; settings: rating scale 0-100 (0 no damage, 100 complete death), 14 days after application
Procedure, shortened: as §3

[21] = tested on: velvetleaf (Abutilon theophrasti, ABUTH); experiment: as above; settings: rating scale 0-100 (0 no damage, 100 complete death), 14 days after application
Procedure, shortened: as §3

[22] = tested on: field corn (Zea mays L., var. Dekalb 535, CORN); experiment: Post-emerge test, crop safety; settings: rating scale 0-100 (0 no damage, 100 complete death), 14 days after application
Procedure, shortened: (§4)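 Plants grown in 10 cm pots of sandy loam mix received acetone-dissolved compounds through a moving flat-fan nozzle. Doses ranged from 15 to 1000 g ai/ha. Pre-emerge pots were seeded one day earlier, post-emerge pots 8–21 days earlier. Fourteen days on, each pot was graded 0–100 for damage.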

[23] = tested on: upland rice (Oryza sp., var. Tebonnet, RICE); experiment: Post-emerge test, crop safety; settings: rating scale 0-100 (0 no damage, 100 complete death), 14 days after application
Procedure, shortened: as §4

## CCOC(=O)C(C)(Cl)Cc1c(OC)c(Cl)cc(F)c1-n1c(=O)cc(C(F)(F)F)n(C)c1=O (stereo not shown) [14-34]
[1]; 63 g ai/ha
  Pre-emerge herbicidal activity, phytotoxicity rating AMARE: 100
[1]; 250 g ai/ha
  Pre-emerge herbicidal activity, phytotoxicity rating AMARE: 100
[2]; 63 g ai/ha
  Pre-emerge herbicidal activity, phytotoxicity rating ECHCG: 20
[2]; 250 g ai/ha
  Pre-emerge herbicidal activity, phytotoxicity rating ECHCG: 90
[3]; 63 g ai/ha
  Pre-emerge herbicidal activity, phytotoxicity rating SETVI: 30
[3]; 250 g ai/ha
  Pre-emerge herbicidal activity, phytotoxicity rating SETVI: 100
[4]; 63 g ai/ha
  Pre-emerge herbicidal activity, phytotoxicity rating IPOHE: 10
[4]; 250 g ai/ha
  Pre-emerge herbicidal activity, phytotoxicity rating IPOHE: 10
[5]; 63 g ai/ha
  Pre-emerge herbicidal activity, phytotoxicity rating SORHA: 0
[5]; 250 g ai/ha
  Pre-emerge herbicidal activity, phytotoxicity rating SORHA: 30
[6]; 63 g ai/ha
  Pre-emerge herbicidal activity, phytotoxicity rating CHEAL: 95
[6]; 250 g ai/ha
  Pre-emerge herbicidal activity, phytotoxicity rating CHEAL: 100
[7]; 63 g ai/ha
  Pre-emerge herbicidal activity, phytotoxicity rating DIGSA: 90
[7]; 250 g ai/ha
  Pre-emerge herbicidal activity, phytotoxicity rating DIGSA: 100
[8]; 63 g ai/ha
  Pre-emerge herbicidal activity, phytotoxicity rating CASOB: 20
[8]; 250 g ai/ha
  Pre-emerge herbicidal activity, phytotoxicity rating CASOB: 10
[9]; 63 g ai/ha
  Pre-emerge herbicidal activity, phytotoxicity rating ABUTH: 100
[9]; 250 g ai/ha
  Pre-emerge herbicidal activity, phytotoxicity rating ABUTH: 100
[10]; 63 g ai/ha
  Pre-emerge phytotoxicity rating, crop damage CORN: 0
[10]; 250 g ai/ha
  Pre-emerge phytotoxicity rating, crop damage CORN: 25
[11]; 63 g ai/ha
  Pre-emerge phytotoxicity rating, crop damage RICE: 20
[11]; 250 g ai/ha
  Pre-emerge phytotoxicity rating, crop damage RICE: 90
[12]; Rate 63 g ai/ha
  Post-emerge Herbicidal Activity, phytotoxicity rating ECHCG: 100
[12]; Rate 250 g ai/ha
  Post-emerge Herbicidal Activity, phytotoxicity rating ECHCG: 100
[13]; Rate 63 g ai/ha
  Post-emerge Herbicidal Activity, phytotoxicity rating AMBEL: 40
[13]; Rate 250 g ai/ha
  Post-emerge Herbicidal Activity, phytotoxicity rating AMBEL: 100
[14]; Rate 63 g ai/ha
  Post-emerge Herbicidal Activity, phytotoxicity rating SETVI: 100
[14]; Rate 250 g ai/ha
  Post-emerge Herbicidal Activity, phytotoxicity rating SETVI: 100
[15]; Rate 63 g ai/ha
  Post-emerge Herbicidal Activity, phytotoxicity rating IPOHE: 60
[15]; Rate 250 g ai/ha
  Post-emerge Herbicidal Activity, phytotoxicity rating IPOHE: 90
[16]; Rate 63 g ai/ha
  Post-emerge Herbicidal Activity, phytotoxicity rating SORHA: 60
[16]; Rate 250 g ai/ha
  Post-emerge Herbicidal Activity, phytotoxicity rating SORHA: 80
[17]; Rate 63 g ai/ha
  Post-emerge Herbicidal Activity, phytotoxicity rating CHEAL: 100
[17]; Rate 250 g ai/ha
  Post-emerge Herbicidal Activity, phytotoxicity rating CHEAL: 100
[18]; Rate 63 g ai/ha
  Post-emerge Herbicidal Activity, phytotoxicity rating DIGSA: 70
[18]; Rate 250 g ai/ha
  Post-emerge Herbicidal Activity, phytotoxicity rating DIGSA: 99
[19]; Rate 63 g ai/ha
  Post-emerge Herbicidal Activity, phytotoxicity rating AMARE: 100
[19]; Rate 250 g ai/ha
  Post-emerge Herbicidal Activity, phytotoxicity rating AMARE: 100
[20]; Rate 63 g ai/ha
  Post-emerge Herbicidal Activity, phytotoxicity rating CASOB: 40
[20]; Rate 250 g ai/ha
  Post-emerge Herbicidal Activity, phytotoxicity rating CASOB: 100
[21]; Rate 63 g ai/ha
  Post-emerge Herbicidal Activity, phytotoxicity rating ABUTH: 99
[21]; Rate 250 g ai/ha
  Post-emerge Herbicidal Activity, phytotoxicity rating ABUTH: 100
[22]; Rate 63 g ai/ha
  Post-emerge phytotoxicity rating CORN (crop damage): 80
[22]; Rate 250 g ai/ha
  Post-emerge phytotoxicity rating CORN (crop damage): 100
[23]; Rate 63 g ai/ha
  Post-emerge phytotoxicity rating RICE (crop damage): 25
[23]; Rate 250 g ai/ha
  Post-emerge phytotoxicity rating RICE (crop damage): 70
